Source: US6417164B1, “Treatment of type II diabetes mellitus with amylin agonists” (Amylin Pharmaceuticals, Inc., priority 1995, dated 2002)
Ends that are not written are not given here.

Key:
[1] = Solubility and stability characteristics compared to human amylin; format: physicochemical
From the text: (§1) These preferred compounds include ^25Pro^26Val^28,29Pro-h-amylin, ^25,28,29Pro-h-amylin (also referred to herein as “AC-0137”), and ^18Arg^25,28Pro-h-amylin.

[2] = target: T1, membrane-bound amylin receptors (Rattus norvegicus, UniProt P32214+Q9JJ74); test: Receptor binding assay (competition with 125I Bolton Hunter rat amylin)
T1 construct: A preferred source of the membrane preparations used in the assay is the basal forebrain which comprises membranes from the nucleus accumbens; from tissue; host or cells: basal forebrain membranes (nucleus accumbens and surrounding regions)
T1 sequence (P32214 25-516): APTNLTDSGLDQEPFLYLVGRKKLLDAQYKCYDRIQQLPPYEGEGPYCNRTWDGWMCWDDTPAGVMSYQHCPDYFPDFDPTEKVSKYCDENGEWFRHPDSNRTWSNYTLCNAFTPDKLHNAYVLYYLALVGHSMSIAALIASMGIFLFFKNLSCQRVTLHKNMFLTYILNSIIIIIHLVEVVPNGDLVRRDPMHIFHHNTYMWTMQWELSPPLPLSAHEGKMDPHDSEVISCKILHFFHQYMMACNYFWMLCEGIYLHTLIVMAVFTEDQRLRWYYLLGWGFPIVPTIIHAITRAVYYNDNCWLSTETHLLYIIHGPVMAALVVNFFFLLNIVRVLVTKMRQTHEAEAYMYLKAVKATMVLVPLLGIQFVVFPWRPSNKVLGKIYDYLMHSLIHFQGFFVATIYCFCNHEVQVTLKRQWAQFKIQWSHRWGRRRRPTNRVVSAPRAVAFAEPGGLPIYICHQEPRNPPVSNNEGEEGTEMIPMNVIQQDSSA
T1 sequence (Q9JJ74 27-148): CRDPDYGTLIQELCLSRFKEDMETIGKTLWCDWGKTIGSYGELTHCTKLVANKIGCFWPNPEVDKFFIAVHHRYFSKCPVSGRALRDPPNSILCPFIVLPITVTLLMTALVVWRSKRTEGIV
From the text: The receptor binding assay is described in U.S. Pat. No. 5,264,372, issued Nov. 23, 1993, the disclosure of which is incorporated herein by reference. The receptor binding assay is a competition assay which measures the ability of compounds to bind specifically to membrane-bound amylin receptors. A preferred source of the membrane preparations used in the assay is the basal forebrain which comprises membranes from the nucleus accumbens and surrounding regions. Compounds being assayed compete for binding to these receptor preparations with ^125I Bolton Hunter rat amylin. Competition curves, wherein the amount bound (B) is plotted as a function of the log of the concentration of ligand are analyzed by computer, using analyses by nonlinear regression to a 4-parameter logistic equation (Inplot program; GraphPAD Software, San Diego, Calif.) or the ALLFIT program of DeLean et. al. (ALLFIT, Version 2.7 (NIH, Bethesda, Md. 20892)). Munson, P. and Rodbard, D., Anal. Biochem. 107:220-239 (1980).

[3] = tested on: insulin-stimulated glycogen synthesis in soleus muscle; test: Soleus muscle assay; design: species or system rat
Experimental: Assays of biological activity of amylin agonists, including amylin agonist analogue preparations, in the soleus muscle are performed using previously described methods (Leighton, B. and Cooper, G. J. S., Nature, 335:632-635 (1988); Cooper, G. J. S., et al. Proc. Natl. Acad. Sci. USA 85:7763-7766 (1988)). In summary, amylin agonist activity is assessed by measuring the inhibition of insulin-stimulated glycogen synthesis in soleus muscle. Amylin antagonist activity is assessed by measuring the resumption of insulin-stimulated glycogen synthesis in the presence of 100 nM rat amylin and an amylin antagonist. Concentrations of peptide dissolved in carrier-free buffers are determined by quantitative amino acid analysis, as described therein. The ability of compounds to act as agonists in this assay is determined by measuring EC50 values. Standard errors are determined by fitting of sigmoidal dose response curves using a four parameter logistic equation (De Lean, A., Munson, P. J., Guardabasso, V. and Rodbard, D. (1988) ALLFIT, Version 2.7, National Institute of Child Health and Human Development, N.I.H. Bethesda, Md., 1 diskette). A number of amylin agonists have been characterized using these biological assays.

treated test animals = test: Amylin activity in vivo in treated test animals
From the text: as §1

Compound | stability characteristics [1] | competition with amylin in the receptor binding assay [2] | amylin agonist action in the soleus muscle assay [3] | antagonist activity as measured by the soleus muscle assay [3] | amylin activity in vivo (treated test animals)
CC[C@H](C)[C@H](NC(=O)[C@@H]1CCCN1C(=O)CNC(=O)[C@H](Cc1ccccc1)NC(=O)[C@H](CC(N)=O)NC(=O)[C@H](CC(N)=O)NC(=O)[C@H](CO)NC(=O)[C@H](CO)NC(=O)[C@H](Cc1c[nH]cn1)NC(=O)[C@@H](NC(=O)[C@H](CC(C)C)NC(=O)[C@H](Cc1ccccc1)NC(=O)[C@H](CC(N)=O)NC(=O)[C@H](C)NC(=O)[C@H](CC(C)C)NC(=O)[C@H](CCCNC(=N)N)NC(=O)[C@H](CCC(N)=O)NC(=O)[C@@H](NC(=O)[C@H](C)NC(=O)[C@@H]1CSSC[C@H](NC(=O)[C@@H](N)CCCCN)C(=O)N[C@@H](CC(N)=O)C(=O)N[C@@H]([C@@H](C)O)C(=O)N[C@@H](C)C(=O)N[C@@H]([C@@H](C)O)C(=O)N1)[C@@H](C)O)C(C)C)C(=O)N[C@@H](CC(C)C)C(=O)N1CCC[C@H]1C(=O)N1CCC[C@H]1C(=O)N[C@H](C(=O)N[C@@H](CC(N)=O)C(=O)N[C@H](C(=O)NCC(=O)N[C@@H](CO)C(=O)N[C@@H](CC(N)=O)C(=O)N[C@H](C(=O)N[C@@H](Cc1ccc(O)cc1)C(N)=O)[C@@H](C)O)C(C)C)[C@@H](C)O [AC137, ^25,28,29Pro-h-amylin] | more desirable | – | – | – | –
^18Arg^25,28,29Pro-h-amylin | – | found to compete with amylin | shown to act as amylin agonists | negligible antagonist activity | –
^25Pro^26Val^25,28Pro-h-amylin | – | found to compete with amylin | shown to act as amylin agonists | negligible antagonist activity | –
^28Pro-h-amylin (KCNTATCATQRLANFLVHSSNNFGAILPSTNVGSNTY; ends and bridges not checked; cysteine pairing not given here; UniProt P10997 34-70, looked up, variant S28P) [amylin agonist analogue of human amylin] | – | – | – | – | marked hyperlactemia followed by hyperglycemia
des-^1Lys-h-amylin [des-^1Lys-hamylin] | – | – | – | – | marked hyperlactemia followed by hyperglycemia
des-^1Lys^18Arg^25,28,29Pro-h-amylin | – | found to compete with amylin | shown to act as amylin agonists | negligible antagonist activity | –
des-^1Lys^18Arg^25,28Pro-h-amylin | – | found to compete with amylin | shown to act as amylin agonists | negligible antagonist activity | marked hyperlactemia followed by hyperglycemia
des-^1Lys^25,28,29Pro-h-amylin | – | found to compete with amylin | shown to act as amylin agonists | negligible antagonist activity | –
